# Tested on: 252836-082-R-J2-PDC tumor spheroids, viability
# Test: Anticancer human tumor 252836-082-R-J2-PDC patient-derived head and neck squamous cell carcinoma cell line growth inhibition [PI3K]
# Settings: spheroids with HUVEC and MSC; for viability, T/C: stronger effect = lower value
# Summary of the method: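 Complex 3D spheroids (cancer cells + endothelial HUVEC + mesenchymal stem cells); drug pairs of targeted agent x inavolisib/alpelisib/duvelisib/copanlisib; half-log series from ~Cmax, max 10 microM if Cmax unknown; endpoint viability.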
# [1] = curve of first compound, second compound 0.0316 µM
# [2] = curve of first compound, second compound 0.1 µM
# [3] = curve of first compound, second compound 0.316 µM
# [4] = curve of first compound, second compound 1 µM
# [5] = second compound 0.0316 µM, first compound 0.0316 µM
# [6] = second compound 0.0316 µM, first compound 0.1 µM
# [7] = second compound 0.0316 µM, first compound 0.316 µM
# [8] = second compound 0.0316 µM, first compound 1 µM
# [9] = second compound 0.0316 µM, first compound 3.16 µM
# [10] = second compound 0.0316 µM, first compound 10 µM
# [11] = second compound 0.1 µM, first compound 0.0316 µM
# [12] = second compound 0.1 µM, first compound 0.1 µM
# [13] = second compound 0.1 µM, first compound 0.316 µM
# [14] = second compound 0.1 µM, first compound 1 µM
# [15] = second compound 0.1 µM, first compound 3.16 µM
# [16] = second compound 0.1 µM, first compound 10 µM
# [17] = second compound 0.316 µM, first compound 0.0316 µM
# [18] = second compound 0.316 µM, first compound 0.1 µM
# [19] = second compound 0.316 µM, first compound 0.316 µM
# [20] = second compound 0.316 µM, first compound 1 µM
# [21] = second compound 0.316 µM, first compound 3.16 µM
# [22] = second compound 0.316 µM, first compound 10 µM
# [23] = second compound 1 µM, first compound 0.0316 µM
# [24] = second compound 1 µM, first compound 0.1 µM
# [25] = second compound 1 µM, first compound 0.316 µM
# [26] = second compound 1 µM, first compound 1 µM
# [27] = second compound 1 µM, first compound 3.16 µM
# [28] = second compound 1 µM, first compound 10 µM
# 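Also: spheroids exposed to agents for seven days before readout.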
# 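For viability, T/C in this document: percent of vehicle DMSO control viability so 100% = untreated growth.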
smiles,measurement,setting,value
CNC(=O)c1ccc(N2C(=S)N(c3ccc(C#N)c(C(F)(F)F)c3)C(=O)C2(C)C)cc1F + CC(Nc1ncnc2nc[nH]c12)c1cc2cccc(Cl)c2c(=O)n1-c1ccccc1,IC50,[1],> 10000 nM
same,IC50,[2],> 10000 nM
same,IC50,[3],> 10000 nM
same,IC50,[4],> 10000 nM
same,IC50,"curve of first compound, second compound 3.16 µM",> 10000 nM
same,IC50,"curve of first compound, second compound 10 µM",> 10000 nM
same,"viability, T/C",[5],103%
same,"viability, T/C",[6],83.9%
same,"viability, T/C",[7],91.7%
same,"viability, T/C",[8],85.1%
same,"viability, T/C",[9],98.2%
same,"viability, T/C",[10],93.4%
same,"viability, T/C",[11],86.4%
same,"viability, T/C",[12],83.5%
same,"viability, T/C",[13],113%
same,"viability, T/C",[14],91.2%
same,"viability, T/C",[15],86.2%
same,"viability, T/C",[16],78.6%
same,"viability, T/C",[17],102%
same,"viability, T/C",[18],79.5%
same,"viability, T/C",[19],90.5%
same,"viability, T/C",[20],90.2%
same,"viability, T/C",[21],88.7%
same,"viability, T/C",[22],78%
same,"viability, T/C",[23],80.9%
same,"viability, T/C",[24],94.9%
same,"viability, T/C",[25],90.9%
same,"viability, T/C",[26],89.6%
same,"viability, T/C",[27],94%
same,"viability, T/C",[28],80.6%
same,"viability, T/C","second compound 3.16 µM, first compound 0.0316 µM",85.7%
same,"viability, T/C","second compound 3.16 µM, first compound 0.1 µM",73.2%
same,"viability, T/C","second compound 3.16 µM, first compound 0.316 µM",75.7%
same,"viability, T/C","second compound 3.16 µM, first compound 1 µM",74.3%
same,"viability, T/C","second compound 3.16 µM, first compound 3.16 µM",86.4%
same,"viability, T/C","second compound 3.16 µM, first compound 10 µM",62.2%
same,"viability, T/C","second compound 10 µM, first compound 0.0316 µM",63%
same,"viability, T/C","second compound 10 µM, first compound 0.1 µM",71.8%
same,"viability, T/C","second compound 10 µM, first compound 0.316 µM",70.9%
same,"viability, T/C","second compound 10 µM, first compound 1 µM",70.5%
same,"viability, T/C","second compound 10 µM, first compound 3.16 µM",69.8%
same,"viability, T/C","second compound 10 µM, first compound 10 µM",59.3%
CC1(C)CCC(Nc2ncc(C(F)(F)F)c(-c3c[nH]c4c(P(C)(C)=O)c(C#N)ccc34)n2)CN1 (stereo unspecified),"viability, T/C",compound 0.0316 µM,30.1% [middle of 4 runs]
same,"viability, T/C",compound 0.1 µM,29.5% [middle of 4 runs]
same,"viability, T/C",compound 0.316 µM,35.8% [middle of 4 runs]
same,"viability, T/C",compound 1 µM,33% [middle of 4 runs]
same,"viability, T/C",compound 3.16 µM,32.1% [middle of 4 runs]
same,"viability, T/C",compound 10 µM,7.06% [middle of 4 runs]
same,IC50,curve of compound,< 31.6 nM
CC1(C)CCC(Nc2ncc(C(F)(F)F)c(-c3c[nH]c4c(P(C)(C)=O)c(C#N)ccc34)n2)CN1 (stereo unspecified) + CC(Nc1ccc2c(c1)OCCn1cc(N3C(=O)OCC3C(F)F)nc1-2)C(N)=O,IC50,"curve of first compound, second compound 0.00316 µM",< 31.6 nM
same,IC50,"curve of first compound, second compound 0.01 µM",< 31.6 nM
same,IC50,[1],< 31.6 nM
same,IC50,[2],< 31.6 nM
same,IC50,[3],< 31.6 nM
same,IC50,[4],< 31.6 nM
same,"viability, T/C","second compound 0.00316 µM, first compound 0.0316 µM",27.2%
same,"viability, T/C","second compound 0.00316 µM, first compound 0.1 µM",24.2%
same,"viability, T/C","second compound 0.00316 µM, first compound 0.316 µM",29.6%
same,"viability, T/C","second compound 0.00316 µM, first compound 1 µM",24.5%
same,"viability, T/C","second compound 0.00316 µM, first compound 3.16 µM",26.2%
same,"viability, T/C","second compound 0.00316 µM, first compound 10 µM",5.32%
same,"viability, T/C","second compound 0.01 µM, first compound 0.0316 µM",27.5%
same,"viability, T/C","second compound 0.01 µM, first compound 0.1 µM",27.6%
same,"viability, T/C","second compound 0.01 µM, first compound 0.316 µM",25.7%
same,"viability, T/C","second compound 0.01 µM, first compound 1 µM",25.6%
same,"viability, T/C","second compound 0.01 µM, first compound 3.16 µM",23.5%
same,"viability, T/C","second compound 0.01 µM, first compound 10 µM",4.5%
same,"viability, T/C",[5],26.8%
same,"viability, T/C",[6],29.1%
same,"viability, T/C",[7],22.2%
same,"viability, T/C",[8],23.8%
same,"viability, T/C",[9],27.3%
same,"viability, T/C",[10],4.59%
same,"viability, T/C",[11],24.1%
same,"viability, T/C",[12],20.6%
same,"viability, T/C",[13],22.1%
same,"viability, T/C",[14],24.8%
same,"viability, T/C",[15],22.9%
same,"viability, T/C",[16],3.21%
same,"viability, T/C",[17],20.6%
same,"viability, T/C",[18],21%
same,"viability, T/C",[19],21.1%
same,"viability, T/C",[20],19.5%
same,"viability, T/C",[21],20.2%
same,"viability, T/C",[22],3.5%
same,"viability, T/C",[23],18.4%
same,"viability, T/C",[24],19.3%
same,"viability, T/C",[25],16.6%
same,"viability, T/C",[26],19.6%
same,"viability, T/C",[27],18.2%
same,"viability, T/C",[28],2.31%

# Reference: PubChem BioAssay AID1963985 (Molecular Pharmacology Branch, DTP, NCI, 2024)
